Assay results: patent US7807712B2, “Oxy substituted chalcones as antihyperglycemic and antidyslipidemic agents” (priority 2004, dated 2010)
Where two headings read alike, the source gives them in different places.

Key:
[1] = system: streptozotocin-induced diabetic rats; test: Sucrose-challenged streptozotocin-induced diabetic rats (STZ-S), antihyperglycemic activity; format: in vivo, rat (Sprague Dawley); conditions: 100 mg/kg oral, sucrose load 2.5 g/kg, AUC vs control
Protocol: Male albino rats of Sprague Dawley strain of body weight […] were selected for this study. Streptozotocin (Sigma, USA) was dissolved in 100 mM citrate buffer pH 4.5 and calculated amount of the fresh solution was injected to overnight fasted rats (45 mg/kg) intraperitoneally. Blood glucose level was checked 48 h later by glucostrips and animals showing blood glucose values between 144 to 270 mg/dl (8 to 15 mM) were included in the experiment and termed diabetic. The diabetic animals were divided into groups consisting of five to six animals in each group. Animals of experimental groups were administered suspension of the desired test samples orally (made in 1.0% gum acacia) at a dose of 100-mg/kg-body weight. Animals of control group were given an equal amount of 1.0% gum acacia. A sucrose load of 2.5-g/kg body weight was given after 30 minutes of compound administration. After 30 minutes of post sucrose load blood glucose level was again checked by glucostrips at 30, 60, 90, 120, 180, 240, 300 min and at 24 h, respectively. Animals not found diabetic after 24 hours post treatment of the test sample were not considered and omitted from the calculations and termed as non-responders. […] Food but not water was withheld from the cages during the experimentation. Comparing the AUC of experimental and control groups determined the percent antihyperglycemic activity. Statistical comparison between groups was made by Student's ‘t’ test.

[2] = system: triton WR-1339 induced hyperlipidemic rats; test: Triton model, antidyslipidemic activity; format: in vivo, rat (Charles foster); conditions: Rattus norvegicus, 100 mg/kg oral
Protocol: Male Charles foster rats weighing 200-225 g were divided into control, hyperlipidemic and hyperlipidemic plus drug treated groups containing six animals in each group. Hyperlipidemia was induced by administration of triton WR-1339 (200 mg/kg i.p.). All animals were maintained on a special pellet diet and water ad libitum. Compounds and standard drug were macerated with 0.2% aqueous gum acacia suspension. The suspension was fed orally at the dose of 100 mg/kg simultaneously with triton in drug treated group. The animals of control group received the same amount of gum acacia by similar route of administration. At the end of the experiment, after 18 h, blood was withdrawn from retro orbital plexus and plasma was used for the assay of total cholesterol, phospholipid and triglycerides.
Cholesterol was estimated using the kit provided by Roche Diagnostics. Cholesterol esters are enzymatically hydrolyzed by cholesterol esterase (CE) to cholesterol and free fatty acids. Free cholesterol, including that originally present, is then oxidized by cholesterol oxidase (CO) to cholest-4-en-3-one and hydrogen peroxide. The hydrogen peroxide combines with hydroxy benzoic acid (HBA) and 4-aminoantipyrine (4AAA) in the presence of peroxidase (POD) to form a chromophore (quinoneimine dye), which may be quantitated at 500-505 nm. The intensity of red colour formed is directly proportional to the concentration of total cholesterol in the specimen and measured spectrophotometrically (Searcy, C. L. Diagnostic Biochemistry, 1969, McGraw Hill, New York; Ellefson, R. D.; Caraway, W. T. Fundamentals of clinical chemistry, 1976, Ed Tietz N W, 506-515.)
Triglycerides were estimated using the kit provided by Roche Diagnostics. Lipoprotein lipase hydrolyses triglycerides to yield glycerol and fatty acids. Glycerol kinase converts glycerol to glycerol-3-phosphate, which is oxidized by glycerol phosphate oxidase to dihydroxy acetone phosphate and hydrogen peroxide. In the presence of peroxidase, hydrogen peroxide oxidatively couples with 4-aminoantipyrine and 4-chloro phenol to produce red quinonimine dye. The intensity of red colour formed is directly proportional to the concentration of triglycerides in the specimen and is measured by photometrically (Wahlefeld, A. W.; Bergmeyer, H. U. Ed. Methods of enzymatic analysis, 2nd English edition, New York, N.Y., Academic press inc, 1831-1840.).
Serum (0.2 mL) and perchloric acid (1.0 mL) was digested at 180° C. for 1-1.5 h till the solution became colorless. The liberated inorganic phosphate (Pi) was measured by the method of Fiske and Subbarow (Fiske, C. H.; Subbarow, V. J. Biol. Chem. 1925, 66, 375.). 1 mL of 2.5% ammonium molybdate (prepared in 5 N sulphuric acid) and 0.5 mL reducing agent (4-amino naphthol sulphonic acid, 0.2%), sodium metabisulphite (2.4% w/v in distilled water) was added to the above tubes and mixed well. The reaction mixture was […] with 2.5 mL of triple distilled water and kept at 60° C. in water bath for 20 min. For standard, an appropriate amount of potassium dihydrogen phosphate dissolved in triple distilled water containing 2-10 μg phosphorus (Pi) was run simultaneously with the experiment tubes. The optical density of the blue colour was recorded at 620 nm against reagent blank. The values of Pi were converted into phospholipid by multiplying with 25 (a constant calibrated from Pi value of lecithin).

sucrose loaded rats = test: Sucrose loaded rat model (SLM), antihyperglycemic activity; format: in vivo, rat (Charles Foster/Wistar); conditions: Rattus norvegicus, 2 h; 100 mg/kg oral; sucrose load 10.0 g/kg; AUC vs control, 30-120 min; read-out: % Fall in blood glucose levels SLM
Protocol: Male albino rats of Charles Foster/Wistar strain of average body weight 160±20 g were selected for this study. The blood glucose level of each animal was checked by glucometer using glucostrips (Boehringer Mannheim) after 16 h starvation. Animals showing blood glucose levels between 3.33 to 4.44 mM (60 to 80 mg/dl) were divided into groups of five to six animals in each. Animals of experimental group were administered suspension of the desired synthetic compound orally (made in 1.0% gum acacia) at a dose of 100-mg/kg-body weight. Animals of control group were given an equal amount of 1.0% gum acacia. A sucrose load (10.0 g/kg) was given to each animal orally exactly after 30 min post administration of the test sample/vehicle. Blood glucose profile of each rat was again determined at 30, 60, 90 and 120 min post administration of sucrose by glucometer. Food but not water was withheld from the cages during the course of experimentation. Quantitative glucose tolerance of each animal was calculated by Area Under Curve (AUC) method (Prism Software). Comparing the AUC of experimental and control groups determined the percentage antihyperglycemic activity. Statistical comparison was made by Dunnett's test.

[3] = plasma phospholipid after 18 h, read-out: % Fall in lipid levels (Triton model) PL
[4] = plasma total cholesterol after 18 h, read-out: % Fall in lipid levels (Triton model) TC
[5] = plasma triglycerides after 18 h, read-out: % Fall in lipid levels (Triton model) TG

Row | SMILES | melting point [°C] | % Fall in blood glucose levels STZ-S 5 h [1] | % Fall in blood glucose levels STZ-S 24 h [1] | inhibition in vivo at 100 mg/kg [2, 3] [%] | inhibition in vivo at 100 mg/kg [2, 4] [%] | inhibition in vivo at 100 mg/kg [2, 5] [%] | inhibition in vivo at 100 mg/kg (sucrose loaded rats) [%]
1 | COc1ccc(/C=C/C(=O)c2ccc(OCC(O)CN3CCN(c4ccccc4)CC3)cc2)cc1 (centres unmarked) [Compound 20, 4′-[2-Hydroxy-3-(4-phenylpiperazin-1-yl)-propoxy]-4-methoxy-chalcone] | 165 to 167 | NIL | NIL | 11 | 11 | 10 | 7.78
2 | COc1ccc(/C=C/C(=O)c2ccc(OCC(O)CNC(C)(C)C)cc2)cc1OC (centres unmarked) [Compound 19, 4′-[3-tert-Butylamino-2-hydroxy-propoxy]-3,4-dimethoxy-chalcone] | 62 to 64 | NIL | NIL | 22 | 21 | 19 | 11.2
3 | COc1ccc(/C=C/C(=O)c2ccc(OCC(O)CNC(C)(C)C)cc2)cc1 (centres unmarked) [Compound 22, 4′-[3-tert-Butylamino-2-hydroxy-propoxy]-4-methoxy-chalcone] | 70 to 71 | NIL | NIL | 11 | 16 | 21 | 11.8
4 | COc1ccc(/C=C/C(=O)c2ccccc2OCC(O)CNC(C)C)cc1 (centres unmarked) [Compound 32, 2′-[2-Hydroxy-3-iso-propylamino-propoxy]-4-methoxy-chalcone] | 88 to 89 |  | 2.77% | 15 | 22 | 29 | 47
5 | CCCCNCC(O)COc1ccccc1C(=O)/C=C/c1ccc(OC)cc1 (centres unmarked) [Compound 31, 2′-[3-n-Butylamino-2-hydroxy-propoxy]-4-methoxy-chalcone] | 106 to 107 | NIL | NIL | 3 |  |  | 33.1
